Laboratory results published in ChEMBL document CHEMBL5634077, “Recent advances in 1,2,3- and 1,2,4-triazole hybrids as antimicrobials and their SAR: A critical review” (2023).
In brackets after ≈: the same amount, converted by molar mass.

What was measured:
Staphylococcus aureus [1] = assay: Antibacterial activity against Staphylococcus aureus assessed as diameter of inhibition zone; assay type: functional
Candida albicans [2] = assay: Antifungal activity against Candida albicans assessed as fungal growth inhibition by CLSI based method; assay type: functional
Cryptococcus neoformans = assay: Antifungal activity against Cryptococcus neoformans assessed as fungal growth inhibition by CLSI based method; assay type: functional
Bacillus subtilis [3] = assay: Antibacterial activity against Bacillus subtilis ATCC 6633 assessed as reduction in microbial growth; assay type: functional
Micrococcus luteus = assay: Antibacterial activity against Micrococcus luteus IFC 12708 assessed as reduction in microbial growth; assay type: functional
Staphylococcus aureus [4] = assay: Antibacterial activity against Staphylococcus aureus ATCC 6538p assessed as reduction in microbial growth; assay type: functional
Proteus vulgaris = assay: Antibacterial activity against Proteus vulgaris ATCC 3851 assessed as reduction in microbial growth; assay type: functional
Salmonella typhimurium = assay: Antibacterial activity against Salmonella typhimurium SL1344 assessed as reduction in microbial growth; assay type: functional, Salmonella enterica subsp. enterica serovar Typhimurium; details: Salmonella enterica
Escherichia coli [5] = assay: Antibacterial activity against Escherichia coli ATCC 25922 assessed as reduction in microbial growth; assay type: functional
Staphylococcus aureus [6] = assay: Antibacterial activity against Staphylococcus aureus assessed as inhibition of bacterial growth; assay type: functional
Escherichia coli [7] = assay: Antibacterial activity against Escherichia coli assessed as inhibition of bacterial growth; assay type: functional
Klebsiella pneumoniae [8] = assay: Antibacterial activity against Klebsiella pneumoniae assessed as inhibition of bacterial growth; assay type: functional
Candida albicans [9] = assay: Antifungal activity against Candida albicans assessed as inhibition of fungal growth; assay type: functional
Aspergillus flavus [10] = assay: Antifungal activity against Aspergillus flavus assessed as inhibition of fungal growth; assay type: functional
Rhizopus = assay: Antifungal activity against Rhizopus assessed as inhibition of fungal growth; assay type: functional
Escherichia coli [11] = assay: Antibacterial activity against Escherichia coli assessed as reduction in bacterial growth; assay type: functional
Bacillus subtilis [12] = assay: Antibacterial activity against Bacillus subtilis assessed as reduction in bacterial growth; assay type: functional
Candida albicans [13] = assay: Antifungal activity against Candida albicans ATCC 90028 assessed as growth inhibition incubated for 24 hrs; assay type: functional
Staphylococcus aureus [14] = assay: Antibacterial activity against Staphylococcus aureus assessed as reduction in bacterial growth incubated for 24 hrs by broth microdilution method; assay type: functional
Staphylococcus aureus [15] = assay: Antibacterial activity against methicillin resistant Staphylococcus aureus incubated for 20 hrs by broth microdilution method; assay type: functional
Candida albicans [16] = assay: Antifungal activity against Candida albicans assessed as diameter of inhibition zone at 50 to 100 ug/ml by disc-diffusion method; assay type: functional; details: dose 50-100 µg/ml
Aspergillus flavus [17] = assay: Antifungal activity against Aspergillus flavus assessed as diameter of inhibition zone at 50 to 100 ug/ml by disc-diffusion method; assay type: functional; details: dose 50-100 µg/ml
Pseudomonas aeruginosa = assay: Antibacterial activity against Pseudomonas aeruginosa MTCC 1034 assessed as reduction in bacterial growth; assay type: functional
Bacillus subtilis [18] = assay: Antibacterial activity against Bacillus subtilis MTCC 441 assessed as reduction in bacterial growth; assay type: functional
Staphylococcus aureus [19] = assay: Antimicrobial activity against Staphylococcus aureus assessed as diameter of inhibition zone incubated for 24 hrs by disc-diffusion method; assay type: functional
Escherichia coli [20] = assay: Antimicrobial activity against Escherichia coli assessed as diameter of inhibition zone incubated for 24 hrs by disc-diffusion method; assay type: functional
Klebsiella pneumoniae [21] = assay: Antimicrobial activity against Klebsiella pneumoniae assessed as diameter of inhibition zone incubated for 24 hrs by disc-diffusion method; assay type: functional
Candida albicans [22] = assay: Antimicrobial activity against Candida albicans assessed as diameter of inhibition zone incubated for 24 hrs by disc-diffusion method; assay type: functional

SMILES: COc1cc([N+](=O)[O-])c(OC)cc1-n1cc(C(C)N2C(=O)C(=O)c3ccccc32)nn1 (centres undefined)
- diameter of the inhibition zone (DIZ) (Staphylococcus aureus [1]): 9 mm

SMILES: O=C(c1ccc(F)cc1)C(Cc1ccccc1)n1cncn1 (centres undefined)
- MIC (Candida albicans [2]): 0.5 µg/mL (≈ 1.69 µM)
- MIC (Cryptococcus neoformans): 0.5 µg/mL (≈ 1.69 µM)

SMILES: CC(c1cn(-c2cnc(-c3ccccc3)c(-c3ccccc3)n2)nn1)N1C(=O)C(=O)c2ccccc21 (centres undefined)
- diameter of the inhibition zone (DIZ) (Staphylococcus aureus [1]): 6 mm

SMILES: Cc1c(-c2nn(-c3ccccc3)cc2C2SCC(=O)N2c2cc(F)ccc2F)nnn1-c1ccccc1 (centres undefined)
- MIC (Bacillus subtilis [3]): 1.56 µg/mL
- MIC (Micrococcus luteus): 1.56 µg/mL
- MIC (Staphylococcus aureus [4]): 1.56 µg/mL
- MIC (Proteus vulgaris): 1.56 µg/mL
- MIC (Salmonella typhimurium): 1.56 µg/mL
- MIC (Escherichia coli [5]): 1.56 µg/mL

SMILES: COc1cc(N2CCC(c3n[nH]c(=S)n3-c3cccc(C(F)(F)F)c3)CC2)ccc1Cl
- MIC (Staphylococcus aureus [6]): 4 µg/mL (≈ 8.53 µM)
- MIC (Escherichia coli [7]): 4 µg/mL (≈ 8.53 µM)
- MIC (Klebsiella pneumoniae [8]): 8 µg/mL (≈ 17.1 µM)
- MIC (Candida albicans [9]): 8 µg/mL (≈ 17.1 µM)
- MIC (Aspergillus flavus [10]): 4 µg/mL (≈ 8.53 µM)
- MIC (Rhizopus): 8 µg/mL (≈ 17.1 µM)

SMILES: CC(c1ccc(Br)cc1)n1cc(Cn2cc(/C=C/C(=O)c3ccc(Br)cc3)c3ccccc32)nn1 (centres undefined)
- MIC (Escherichia coli [11]): 10.9 µM (≈ 6.43 µg/mL)
- MIC (Bacillus subtilis [12]): 10.9 µM (≈ 6.43 µg/mL)

SMILES: COc1ccc(N2C(=O)CSC2c2cn(-c3ccccc3)nc2-c2nnn(-c3ccccc3)c2C)cc1 (centres undefined)
- MIC (Bacillus subtilis [3]): 1.56 µg/mL
- MIC (Micrococcus luteus): 1.56 µg/mL
- MIC (Staphylococcus aureus [4]): 1.56 µg/mL
- MIC (Proteus vulgaris): 1.56 µg/mL
- MIC (Salmonella typhimurium): 1.56 µg/mL
- MIC (Escherichia coli [5]): 1.56 µg/mL

SMILES: CCCCNC(=O)c1nnn(-c2ccc(C)cc2)c1CCC
- growth inhibition (GI) (Candida albicans [13]): 21.2%

SMILES: Cc1ccc2c(c1)c(=O)c1ccccc1n2Cc1cn(-c2ccccc2C)nn1
- MIC (Staphylococcus aureus [14]): 12.3 µg/mL (≈ 32.4 µM)

SMILES: Cc1c(-c2nn(-c3ccccc3)cc2C2SCC(=O)N2c2ccc(F)cc2)nnn1-c1ccccc1 (centres undefined)
- MIC (Bacillus subtilis [3]): 1.56 µg/mL
- MIC (Micrococcus luteus): 1.56 µg/mL
- MIC (Staphylococcus aureus [4]): 1.56 µg/mL
- MIC (Proteus vulgaris): 1.56 µg/mL
- MIC (Salmonella typhimurium): 1.56 µg/mL
- MIC (Escherichia coli [5]): 1.56 µg/mL

SMILES: O=C(c1ccc(Cl)cc1)C(C(c1ccccc1)c1ccccc1)n1cncn1 (centres undefined)
- MIC (Candida albicans [2]): 0.5 µg/mL (≈ 1.29 µM)
- MIC (Cryptococcus neoformans): 0.5 µg/mL (≈ 1.29 µM)

SMILES: COc1cc(/C=C/c2ccc(OCc3cn(CCC(=O)O)nn3)cc2)cc(OC)c1
- MIC (Staphylococcus aureus [15]): 625 µg/mL (≈ 1530 µM)

SMILES: COc1cc(N2CCC(c3n[nH]c(=S)n3-c3cccc(Cl)c3)CC2)ccc1Cl
- MIC (Staphylococcus aureus [6]): 4 µg/mL (≈ 9.19 µM)
- MIC (Escherichia coli [7]): 8 µg/mL (≈ 18.4 µM)
- MIC (Klebsiella pneumoniae [8]): 4 µg/mL (≈ 9.19 µM)
- MIC (Candida albicans [9]): 8 µg/mL (≈ 18.4 µM)
- MIC (Aspergillus flavus [10]): 4 µg/mL (≈ 9.19 µM)
- MIC (Rhizopus): 8 µg/mL (≈ 18.4 µM)

SMILES: COc1cc(/C=C/c2ccc(OCc3cn(CCCCCC(=O)O)nn3)cc2)cc(OC)c1
- MIC (Staphylococcus aureus [15]): 78.1 µg/mL (≈ 173 µM)

SMILES: COc1cc(/C=C/c2ccc(OCc3cn(Cc4ccc(C(=O)O)cc4)nn3)cc2)cc(OC)c1
- MIC (Staphylococcus aureus [15]): 312 µg/mL (≈ 663 µM)

SMILES: CCCCNC(=O)c1nnn(-c2ccc(Br)cc2)c1C
- growth inhibition (GI) (Candida albicans [13]): 63.7%

SMILES: CC(=O)N1CCN(c2ccc(OCC3COC(Cn4ccnc4)(c4ccc(Cl)cc4Cl)O3)cc2)CC1 (centres undefined) [KETOCONAZOLE]
- diameter of the inhibition zone (DIZ) (Candida albicans [16]): 14 mm
- diameter of the inhibition zone (DIZ) (Aspergillus flavus [17]): 14 mm

SMILES: O=C(c1ccc(F)cc1)C(C(c1ccccc1)c1ccccc1)n1cncn1 (centres undefined)
- MIC (Candida albicans [2]): 0.5 µg/mL (≈ 1.35 µM)
- MIC (Cryptococcus neoformans): 0.5 µg/mL (≈ 1.35 µM)

SMILES: COc1cc(/C=C/c2ccc(OCc3cn(-c4ccc(C(=O)O)cc4)nn3)cc2)cc(OC)c1
- MIC (Staphylococcus aureus [15]): 1.2 µg/mL (≈ 2.62 µM)

SMILES: C=CCCC1CC(=O)N1Cc1cn(-c2ccc([N+](=O)[O-])cc2)nn1 (centres undefined)
- MIC (Pseudomonas aeruginosa): 1.25 µg/mL (≈ 3.82 µM)
- MIC (Bacillus subtilis [18]): 1.25 µg/mL (≈ 3.82 µM)

SMILES: Sc1nnc(-c2ccc(Cl)cc2)n1/N=C/c1ccco1
- diameter of the inhibition zone (DIZ) (Staphylococcus aureus [19]): 4 mm
- diameter of the inhibition zone (DIZ) (Escherichia coli [20]): 4 mm
- diameter of the inhibition zone (DIZ) (Klebsiella pneumoniae [21]): 4 mm
- diameter of the inhibition zone (DIZ) (Candida albicans [22]): 4 mm

SMILES: C=CCCC1CC(=O)N1Cc1cn(-c2cccc([N+](=O)[O-])c2)nn1 (centres undefined)
- MIC (Pseudomonas aeruginosa): 1.25 µg/mL (≈ 3.82 µM)
- MIC (Bacillus subtilis [18]): 1.25 µg/mL (≈ 3.82 µM)

SMILES: [N-]=[N+]=Nc1ccc(-n2cc(Cn3c(=O)sc4cc(Br)ccc43)nn2)c(Cl)c1
- growth inhibition (GI) (Candida albicans [13]): 63.7%

SMILES: COc1cc(/C=C/c2ccc(OCc3cn(CCCCC(=O)O)nn3)cc2)cc(OC)c1
- MIC (Staphylococcus aureus [15]): 78.1 µg/mL (≈ 179 µM)
